Test results from patent US20240059698A1 (Accutar Biotechnology Inc., priority 2022, published 2024).

Experiments:
Type in all cases: cell-based
A431 cells = test: Cell growth inhibition (CellTiter-Glo), A431; settings: Homo sapiens, A-431, 72 h, 3 days
How it was run: (§1)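 HCC827 cells in RPMI and A431 cells in DMEM (both 10% FBS) were seeded at 5000 cells/well and left overnight. They were then exposed to compound dilutions for 3 days at 37° C. Viability was read by CellTiter-Glo luminescence.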

[1] = system: HCC827-ASV cells (human EGFR exon 20 insertion mutant V769_D770insASV); test: Cell growth inhibition (CellTiter-Glo), HCC827-ASV; settings: 72 h, HCC827-ASV cells, 3 days, CellTiter-Glo, read-out: Cell growth inhibition, GI50 (nM) HCC827-ASV
Procedure: Generation of HCC827-SVD, HCC827-ASV, and HCC827-YVMA cell lines. The HCC827-SVD cell line was generated by first transducing HCC827 cells (ATCC) with lentiviral particles expressing codon-optimized human EGFR exon 20 insertion mutant D770_N771insSVD, and then selecting under 5 µg/mL puromycin treatment for a week. The resulting cells were further transduced with lentiviral particles carrying EGFR sgRNA and CAS9 to knockout the endogenous alleles of EGER and then selected under 500 µg/mL hygromycin B treatment for two weeks. The limiting dilution approach was used to subsequently generate the single clone of the HCC827-SVD stable cell line. Endogenous EGFR knockout was confirmed by Sanger sequencing of cell genomic DNA, and expression of exogenous mutant EGFR was verified by Western blot analysis.
HCC827-ASV and HCC827-YVMA cell lines were generated in a similar approach as HCC827-SVD, except that HCC827 cells (ATCC) were first transduced with lentiviral particles expressing codon-optimized human EGFR exon 20 insertion mutant V769_D770insASV and human ERBB2 exon20 insertion mutant A775_G776ins YVMA, respectively.
2. Cell Growth Inhibition for HCC827, HCC827-SVD, HCC827-ASV, HCC827-YVMA, and A431.
HCC827(ATCC), HCC827-SVD, HCC827-ASV, and HCC827-YVMA cells were seeded in 96-well plates at 5000 cells/well in 90 μL of RPMI growth medium containing 10% FBS and 1% Penicillin Streptomycin. A431 (ATCC) cells were seeded in 96-well plates at 5000 cells/well in 90 μL of DMEM growth medium containing 10% FBS and 1% Penicillin Streptomycin. Cells were incubated at 37° C. overnight and then administered with 10 μL 10× test compounds prepared in the growth medium at various concentrations. After administration of the compounds, cells were incubated at 37° C. for 3 days. Before the CellTiter-Glo assay, the plates were equilibrated at room temperature for approximately 30 minutes. 100 ul of CellTiter-Glo reagent (Promega) was added to each well. The plates were then incubated at room temperature for 10 minutes and luminescence was recorded by the EnSight® multimode plate reader (PerkinElmer). Table 7 listed selected compounds in cellular growth assay.

HCC827 cells = test: Cell growth inhibition (CellTiter-Glo), HCC827; settings: Homo sapiens, 72 h, 3 days
How it was run: as §1

[2] = system: HCC827-YVMA cells (human ERBB2 exon20 insertion mutant A775_G776ins YVMA); test: Cell growth inhibition (CellTiter-Glo), HCC827-YVMA; settings: 72 h, HCC827-YVMA cells, 3 days, CellTiter-Glo, read-out: Cell growth inhibition, GI50 (nM) HCC827-YVMA
How it was run: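 HCC827 cells transduced with lentiviral codon-optimized mutant (ERBB2 A775_G776insYVMA or EGFR V769_D770insASV), endogenous EGFR knocked out by CRISPR, single clone selected. Cells seeded overnight in RPMI/10% FBS, then exposed to serially diluted compounds at 37 °C for 3 days; viability read by CellTiter-Glo luminescence.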

[3] = system: HCC827-SVD cells (human EGFR exon 20 insertion mutant D770_N771insSVD); test: Cell growth inhibition (CellTiter-Glo), HCC827-SVD; settings: 72 h, 3 days
How it was run: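 HCC827 cells with endogenous EGFR knocked out and lentivirally expressing the insertion mutant (single clone) were seeded at 5000 cells/well in RPMI with 10% FBS. After overnight, compounds added; 3 days at 37 °C, then CellTiter-Glo luminescence.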

SMILES	GI50 (A431 cells) [nM]	GI50 [1] [nM]	GI50 (HCC827 cells) [nM]	GI50 [2] [nM]	GI50 [3] [nM]
C=CC(=O)N1CCC(c2c[nH]c3ncnc(Nc4ccc(Oc5ccnc(N6CC(O)(C(F)(F)F)C6)c5)cc4F)c23)CC1 [Compound 144, 1-(4-(4-((2-fluoro-4-((2-(3-hydroxy-3-(trifluoromethyl)azetidin-1-yl)pyridin-4-yl)oxy)phenyl)amino)-7H-pyrrolo[2,3-d]pyrimidin-5-yl)piperidin-1-yl)prop-2-en-1-one]	> 1000	< 50	50 to 200	< 50	> 1000
C=CC(=O)N1CCC(c2c[nH]c3ncnc(Nc4ccc(Oc5ccnc(N6CCN(C)CC6)c5)cc4F)c23)CC1 [Compound 152, 1-(4-(4-((2-fluoro-4-((2-(4-methylpiperazin-1-yl)pyridin-4-yl)oxy)phenyl)amino)-7H-pyrrolo[2,3-d]pyrimidin-5-yl)piperidin-1-yl)prop-2-en-1-one]	> 1000	200 to 1000	> 1000	200 to 1000	200 to 1000
C=CC(=O)N1CC=C(c2c[nH]c3ncnc(Nc4ccc(OCc5ccccn5)c(Cl)c4)c23)CC1 [Compound 154, 1-(4-(4-((3-chloro-4-(pyridin-2-ylmethoxy)phenyl)amino)-7H-pyrrolo[2,3-d]pyrimidin-5-yl)-3,6-dihydropyridin-1(2H)-yl)prop-2-en-1-one]	200 to 1000	< 50	< 50	< 50	< 50
C=CC(=O)N1CCC(c2c[nH]c3ncnc(Nc4ccc(Oc5ccnc(N6C[C@@H](C)O[C@@H](C)C6)c5)cc4F)c23)CC1 [Compound 155, 1-(4-(4-((4-((2-((2S,6R)-2,6-dimethylmorpholino)pyridin-4-yl)oxy)-2-fluorophenyl)amino)-7H-pyrrolo[2,3-d]pyrimidin-5-yl)piperidin-1-yl)prop-2-en-1-one]	> 1000	200 to 1000	> 1000	50 to 200	50 to 200
C=CC(=O)N1CCC(c2c[nH]c3ncnc(Nc4ccc(OCc5ccccn5)c(Cl)c4)c23)CC1 [Compound 156, 1-(4-(4-((3-chloro-4-(pyridin-2-ylmethoxy)phenyl)amino)-7H-pyrrolo[2,3-d]pyrimidin-5-yl)piperidin-1-yl)prop-2-en-1-one]	< 50	< 50	< 50	< 50	< 50
C=CC(=O)N1CCC(c2c[nH]c3ncnc(Nc4ccc(Oc5ccn(Cc6cc(C)ccn6)n5)cc4F)c23)CC1 [Compound 157, 1-(4-(4-((2-fluoro-4-((1-((4-methylpyridin-2-yl)methyl)-1H-pyrazol-3-yl)oxy)phenyl)amino)-7H-pyrrolo[2,3-d]pyrimidin-5-yl)piperidin-1-yl)prop-2-en-1-one]	> 1000	50 to 200	200 to 1000	50 to 200	50 to 200
C=CC(=O)N1CCC(c2csc3ncnc(Nc4ccc(Oc5ccn(Cc6cc(C)ccn6)n5)cc4F)c23)CC1 [Compound 158, 1-(4-(4-((2-fluoro-4-((1-((4-methylpyridin-2-yl)methyl)-1H-pyrazol-3-yl)oxy)phenyl)amino)thieno[2,3-d]pyrimidin-5-yl)piperidin-1-yl)prop-2-en-1-one]	> 1000	200 to 1000	> 1000	50 to 200	> 1000
C=CC(=O)N1CCC(c2csc3ncnc(Nc4ccc(Oc5ccnc(N6C[C@@H](C)O[C@@H](C)C6)c5)cc4F)c23)CC1 [Compound 159, 1-(4-(4-((4-((2-((2R,6S)-2,6-dimethylmorpholino)pyridin-4-yl)oxy)-2-fluorophenyl)amino)thieno[2,3-d]pyrimidin-5-yl)piperidin-1-yl)prop-2-en-1-one]	> 1000	200 to 1000	> 1000	200 to 1000	200 to 1000
C=CC(=O)N1CCC(c2csc3ncnc(Nc4ccc(OCc5ccccn5)c(Cl)c4)c23)CC1 [Compound 160, 1-[4-[4-[3-chloro-4-(2-pyridylmethoxy)anilino]thieno[2,3-d]pyrimidin-5-yl]-1-piperidyl]prop-2-en-1-one]	< 50	< 50	< 50	< 50	< 50
C=CC(=O)N1CCC(c2n[nH]c3ncnc(Nc4ccc(Oc5ccn(Cc6cc(C)ccn6)n5)cc4F)c23)CC1 [Compound 164, 1-(4-(4-((2-fluoro-4-((1-((4-methylpyridin-2-yl)methyl)-1H-pyrazol-3-yl)oxy)phenyl)amino)-1H-pyrazolo[3,4-d]pyrimidin-3-yl)piperidin-1-yl)prop-2-en-1-one]	200 to 1000	200 to 1000	200 to 1000	50 to 200	200 to 1000
C=CC(=O)N1CCC(c2n[nH]c3ncnc(Nc4ccc(OCc5ccccn5)c(Cl)c4)c23)CC1 [Compound 166, 1-(4-(4-((3-chloro-4-(pyridin-2-ylmethoxy)phenyl)amino)-1H-pyrazolo[3,4-d]pyrimidin-3-yl)piperidin-1-yl)prop-2-en-1-one]	< 50	< 50	< 50	< 50	< 50
C=CC(=O)N1CCC(c2n[nH]c3ncnc(Nc4ccc(Oc5ccnc(N6C[C@@H](C)O[C@@H](C)C6)c5)cc4F)c23)CC1 [Compound 167, 1-(4-(4-((4-((2-((2R,6S)-2,6-dimethylmorpholino)pyridin-4-yl)oxy)-2-fluorophenyl)amino)-1H-pyrazolo[3,4-d]pyrimidin-3-yl)piperidin-1-yl)prop-2-en-1-one]	> 1000	50 to 200	> 1000	50 to 200	50 to 200
C=CC(=O)N1CCC(c2n[nH]c3ncnc(Nc4ccc(Oc5ccnc(N6CCC(C(F)(F)F)C6)c5)cc4F)c23)CC1 (stereo not drawn) [Compound 173, 1-(4-(4-((2-fluoro-4-((2-(3-(trifluoromethyl)pyrrolidin-1-yl)pyridin-4-yl)oxy)phenyl)amino)-1H-pyrazolo[3,4-d]pyrimidin-3-yl)piperidin-1-yl)prop-2-en-1-one]	> 1000	< 50	200 to 1000	< 50	50 to 200
C=CC(=O)N1CCC(c2n[nH]c3ncnc(Nc4ccc(Oc5ccnc(N6CCC(F)(F)C6)c5)cc4F)c23)CC1 [Compound 175, 1-(4-(4-((4-((2-(3,3-difluoropyrrolidin-1-yl)pyridin-4-yl)oxy)-2-fluorophenyl)amino)-1H-pyrazolo[3,4-d]pyrimidin-3-yl)piperidin-1-yl)prop-2-en-1-one]	> 1000	50 to 200	> 1000	50 to 200	50 to 200
C=CC(=O)N1CCC(c2n[nH]c3ncnc(Nc4ccc(Oc5ccnc(N6CC(O)(C(F)(F)F)C6)c5)cc4F)c23)CC1 [Compound 177, 1-(4-(4-((2-fluoro-4-((2-(3-hydroxy-3-(trifluoromethyl)azetidin-1-yl)pyridin-4-yl)oxy)phenyl)amino)-1H-pyrazolo[3,4-d]pyrimidin-3-yl)piperidin-1-yl)prop-2-en-1-one]	> 1000	200 to 1000	> 1000	50 to 200	200 to 1000
